Assay results published in ChEMBL document CHEMBL5131519, “Conversion of a False Virtual Screen Hit into Selective JAK2 JH2 Domain Binders Using Convergent Design Strategies” (ACS Med Chem Lett, 2022).

Assays:
[1] = target: T1, Tyrosine-protein kinase JAK2 (Homo sapiens, UniProt O60674); assay: Binding affinity to wild type JAK2 JH2 pseudokinase domain (unknown origin) expressed in Sf9 cells at 50 uM and measured upto 30 mins competitive fluorescence polarization assay
[2] = target: T1, Tyrosine-protein kinase JAK2; assay: Binding affinity to wild type JAK2 JH2 pseudokinase domain (unknown origin) expressed in Sf9 cells and measured upto 30 mins by competitive fluorescence polarization assay
[3] = in vitro; design: dose or concentration left out as unconfirmed; details: PAMPA, pH 7.4
Description: Permeability of compound in PBS buffer at pH 7.4 at 500 mM incubated for 18 hrs by UV plate reader based PAMPA assay

[4] = target: Tyrosine-protein kinase JAK2 (Homo sapiens, UniProt O60674, V617F); assay: Binding affinity to wild type JAK2 JH2 pseudokinase domain (unknown origin) V617F mutant expressed in Sf9 cells and measured upto 30 mins by competitive fluorescence polarization assay
Tyrosine-protein kinase JAK2 (Homo sapiens, UniProt O60674, V617F), sequence (O60674 whole entry V617F, the tested form may be a part): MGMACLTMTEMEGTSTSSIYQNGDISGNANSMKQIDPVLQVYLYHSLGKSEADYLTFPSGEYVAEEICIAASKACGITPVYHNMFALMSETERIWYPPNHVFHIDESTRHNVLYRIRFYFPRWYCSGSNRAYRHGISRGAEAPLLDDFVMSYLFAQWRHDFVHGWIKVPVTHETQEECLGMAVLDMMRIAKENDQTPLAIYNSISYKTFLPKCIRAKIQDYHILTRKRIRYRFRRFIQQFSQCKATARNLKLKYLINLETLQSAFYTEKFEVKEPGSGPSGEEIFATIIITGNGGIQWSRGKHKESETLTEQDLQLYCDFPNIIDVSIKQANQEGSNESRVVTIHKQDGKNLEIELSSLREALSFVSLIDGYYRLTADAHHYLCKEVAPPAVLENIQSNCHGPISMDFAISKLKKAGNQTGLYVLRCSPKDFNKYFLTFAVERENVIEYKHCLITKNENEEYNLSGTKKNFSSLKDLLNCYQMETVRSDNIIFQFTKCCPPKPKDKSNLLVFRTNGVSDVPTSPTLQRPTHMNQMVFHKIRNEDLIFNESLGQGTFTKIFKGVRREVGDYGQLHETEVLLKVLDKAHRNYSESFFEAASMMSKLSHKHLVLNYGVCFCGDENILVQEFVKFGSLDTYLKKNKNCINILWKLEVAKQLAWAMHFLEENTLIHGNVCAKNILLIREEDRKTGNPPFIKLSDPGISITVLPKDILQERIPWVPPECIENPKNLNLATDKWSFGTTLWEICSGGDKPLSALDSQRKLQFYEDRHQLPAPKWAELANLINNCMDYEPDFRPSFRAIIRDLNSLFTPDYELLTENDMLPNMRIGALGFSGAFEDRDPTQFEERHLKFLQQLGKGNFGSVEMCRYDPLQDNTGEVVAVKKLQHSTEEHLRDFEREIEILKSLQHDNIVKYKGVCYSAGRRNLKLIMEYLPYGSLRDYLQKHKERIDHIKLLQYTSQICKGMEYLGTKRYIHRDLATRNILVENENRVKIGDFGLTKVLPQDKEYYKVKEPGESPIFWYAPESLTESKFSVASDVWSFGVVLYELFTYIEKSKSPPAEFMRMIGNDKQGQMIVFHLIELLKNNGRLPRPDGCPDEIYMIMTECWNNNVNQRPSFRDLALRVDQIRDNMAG

[5] = Binding affinity to wild type JAK2 JH1 catalytic domain (unknown origin) expressed in Sf9 cells and measured upto 30 mins by competitive fluorescence polarization assay; design: species or system Homo sapiens

T1 sequence (O60674 whole entry, the tested form may be a part): as the sequence (O60674 whole entry V617F, the tested form may be a part) above, with F617V counted along it

Row | Compound | Activity [1] [%] | Kd [2] [nM] | further results
1 | Nc1nc(Oc2ccc(NC(=O)NCCC(=O)O)cc2)c2cc[nH]c2n1 | 30 | – | –
2 | Nc1nc(Oc2ccc(NC(=O)N[C@@H](Cc3ccccc3)C(=O)O)cc2)c2cc[nH]c2n1 | – | 2220 | –
3 | Nc1nc(Oc2ccc(NC(=O)CCC(=O)O)cc2)c2cc[nH]c2n1 | – | 18800 | –
4 | Nc1nc(Oc2ccc(NC(=O)N[C@@H](COCc3ccccc3)C(=O)O)cc2)c2cc[nH]c2n1 | – | 590 | –
5 | Nc1nc(Oc2ccc(NC(=O)N[C@H](Cc3ccccc3)C(=O)O)cc2)c2cc[nH]c2n1 | – | 9900 | –
6 | Nc1nc(Oc2ccc(NC(=O)N[C@H](CCc3ccccc3)C(=O)O)cc2)c2cc[nH]c2n1 | 46 | – | –
7 | O=C(N[C@H](CO)[C@H](O)c1ccc([N+](=O)[O-])cc1)C(Cl)Cl [CHLORAMPHENICOL] | – | – | Papp at 18 h [3]: 4.53 ×10⁻⁶ cm/s
8 | Nc1nc(Oc2ccc(NC(=O)N[C@@H](CCc3ccccc3)C(=O)O)cc2)c2cc[nH]c2n1 | – | 327 | Kd [4]: 179 nM; Kd [5]: 36100 nM
9 | Nc1nc(-c2ccc(S(=O)(=O)CCC(=O)O)cc2)c2cc[nH]c2n1 | 4 | – | –
10 | Nc1nc(Oc2ccc(NC(=O)CCCC(=O)O)cc2)c2cc[nH]c2n1 | 27 | – | –
11 | Nc1nc(Oc2ccc(NC(=O)N[C@@H](CCCc3ccccc3)C(=O)O)cc2)c2cc[nH]c2n1 | – | 587 | –
12 | Nc1nc(Oc2ccc(NS(=O)(=O)CCC(=O)O)cc2)c2cc[nH]c2n1 | 18 | – | –
